Results from patent publication US20140357655A1, “SPIROINDOLINE DERIVATIVES AS GONADOTROPIN- RELEASING HORMONE RECEPTOR ANTAGONISTS” (Bayer Intellectual Property GmbH, priority 2012, published 2014).

Target: T1, human GnRH receptor (Homo sapiens, UniProt P30968)
T1 sequence (P30968 1-328): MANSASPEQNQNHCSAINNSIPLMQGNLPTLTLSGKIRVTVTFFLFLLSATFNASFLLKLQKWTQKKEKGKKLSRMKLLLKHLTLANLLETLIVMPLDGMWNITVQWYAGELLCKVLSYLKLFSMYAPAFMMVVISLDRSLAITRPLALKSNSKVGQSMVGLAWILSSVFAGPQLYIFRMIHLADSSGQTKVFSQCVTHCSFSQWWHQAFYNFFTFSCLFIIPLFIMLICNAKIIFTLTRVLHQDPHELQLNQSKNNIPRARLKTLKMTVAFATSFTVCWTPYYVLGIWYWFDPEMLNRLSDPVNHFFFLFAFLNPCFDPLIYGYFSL
Test: IP-One HTRF assay with buserelin (at EC80) stimulation
Assay type: cell-based
Settings: CHO cells stably expressing human GnRH receptor, read-out: Potency in IP-One HTRF assay, given as IC50
Description: 2.3. IP-One HTRF® Assay By using homogenous time-resolved fluorescence resonance energy transfer (HTRF), the generation of one component of the GnRH—R signalling cascade can be measured. After stimulation of CHO cells stably expressing human GnRH receptor (established by Prof. Thomas Gudermann, currently University of Marburg, Germany; supplied as frozen cell aliquots by Cell Culture Services, Hamburg, Germany) with the EC80 of the GnRH agonist buserelin, Gq protein-coupled receptor signalling cascade is activated resulting in PLC-dependent cleavage of PIP2 to Inositol-1,4,5-triphosphate (IP3) and Diacylglycerol. The second messenger IP3 is degraded intracellularly to myo-inositol. Inhibition of the final degradation step from Inositol-1-phosphate (IP1) to myo-inositol by addition of lithium chloride leads to accumulation of IP1 in the cells. In cell lysates, IP1 can be detected via an antibody-based HTRF detection technology, where IP1 can displace the FRET acceptor IP1-d2 from binding by Terbium-labelled anti-IP1 antibody as donor resulting in a signal decrease. Compounds were tested for their capability of inhibiting GnRH—R activation by buserelin. For all IP-One HTRF® assays reagents of Cisbio Bioassays (IP-One Tb Jumbo kit, #62IPAPEJ; Cisbio Bioassays, Bagnols sur Cèze Cedex, France) were used.
For the assay, frozen cell aliquots were thawed and a cell suspension (3.33×10^6 cells/mL) containing IP1-d2 (dilution 1:40) was prepared and incubated at 37° C. After 1 h 3 μl of the cell suspension were added to 50 nl of a 100-fold concentrated solution of the test compound in DMSO pre-dispensed in a well of a white low-volume 384-well microtiter plate (Greiner Bio-One, Frickenhausen, Germany). […] Plates were incubated for 1 h at 37° C. and 5% carbon dioxide before the cells were lysed by adding 3 μl Terbium-labelled anti-IP1 antibody (1:40) diluted in Conjugate & Lysis buffer as supplied with the kit. After an incubation for 1 h at 22° C. to enable complete cell lysis and antibody binding to free IP1 or IP1-d2, plates were measured in an HTRF reader, e.g. a RUBYstar, PHERAstar (both BMG Labtechnologies, Offenburg, Germany) or a Viewlux (PerkinElmer LAS, Rodgau-Jügesheim, Germany).
From the fluorescence emissions at 665 nm (FRET) and at 620 nm (background signal of Terbium-antibody), the ratio (emission at 665 nm divided by emission at 620 nm) was calculated and the data were normalized (reaction without test compound=0% inhibition; all other assay components except agonist=100% inhibition). On the same microtiter plate, compounds were tested at 10 different concentrations in the range of 20 μM to 1 nM (20 μM, 6.7 μM, 2.2 μM, 0.74 μM, 0.25 μM, 82 nM, 27 nM, 9.2 nM, 3.1 nM and 1 nM; dilution series prepared before the assay at the level of the 100-fold conc. stock solutions by serial 1:3 dilutions in 100% DMSO) in duplicate values for each concentration. By using an in-house software, the IC50 values were calculated by a 4 parameter fit.

| Structure (SMILES) | IC50 [nM] |
| --- | --- |
| CC1N(S(=O)(=O)c2ccc(F)cc2)c2ccc(C(=O)NCc3ncccc3C(F)(F)F)cc2C12CCOCC2 (single isomer, unassigned) [Example 3.1, 1-[(4-fluorophenyl)sulfonyl]-2-methyl-N-{[3-(trifluoromethyl)pyridin-2-yl]methyl}-1,2,2′,3′,5′,6′-hexahydrospiro[indole-3,4′-pyran]-5-carboxamide] | 226 |
| CN(C)C(=NS(=O)(=O)c1cccc(NC(=O)c2ccc3c(c2)C2(CCS(=O)(=O)CC2)C(C2CC2)N3S(=O)(=O)c2ccc(F)cc2)c1)N(C)C (centres unmarked) [Example 64, N-(3-{[bis(dimethylamino)methylidene]sulfamoyl}phenyl)-2-cyclopropyl-1-[(4-fluorophenyl)sulfonyl]-1,2,2′,3′,5′,6′-hexahydrospiro[indole-3,4′-thiopyran]-5-carboxamide 1′,1′-dioxide] | 9.3 |
| COC(=O)c1cccc(S(=O)(=O)N2c3ccc(C(=O)NCc4ccccc4Cl)cc3C3(CCS(=O)(=O)CC3)C2C2CC2)c1 (single isomer, unassigned) [Example 60.1, methyl 3-({5-[(2-chlorobenzyl)carbamoyl]-2-cyclopropyl-1′,1′-dioxido-2′,3′,5′,6′-tetrahydrospiro[indole-3,4′-thiopyran]-1(2H)-yl}sulfonyl)benzoate] | 55 |
| CS(=O)(=O)c1cccc(NC(=O)c2ccc3c(c2)C2(CCS(=O)(=O)CC2)C(C2CC2)N3S(=O)(=O)c2ccc(F)cc2)c1 (single isomer, unassigned) [Example 23.2, 2-cyclopropyl-1-[(4-fluorophenyl)sulfonyl]-N-(3-mesylphenyl)-1,2,2′,3′,5′,6′-hexahydrospiro[indole-3,4′-thiopyran]-5-carboxamide 1′,1′-dioxide] | 153 |
| N#Cc1cccc(S(=O)(=O)N2c3ccc(C(=O)NCc4ncccc4C(F)(F)F)cc3C3(CCS(=O)(=O)CC3)C2C2CC2)c1 (single isomer, unassigned) [Example 79.1, 1-[(3-cyanophenyl)sulfonyl]-2-cyclopropyl-N-{[3-(trifluoromethyl)pyridin-2-yl]methyl}-1,2,2′,3′,5′,6′-hexahydrospiro[indole-3,4′-thiopyran]-5-carboxamide 1′,1′-dioxide] | 54 |
| O=C(NCC1CCCCC1)c1ccc2c(c1)C1(CCS(=O)(=O)CC1)C(C1CC1)N2S(=O)(=O)c1ccc(F)cc1 (single isomer, unassigned) [Example 36.1, N-(cyclohexylmethyl)-2-cyclopropyl-1-[(4-fluorophenyl)sulfonyl]-1,2,2′,3′,5′,6′-hexahydrospiro[indole-3,4′-thiopyran]-5-carboxamide 1′,1′-dioxide] | 107 |
| CN(C)S(=O)(=O)c1cccc(NC(=O)c2ccc3c(c2)C2(CCS(=O)(=O)CC2)C(C2CC2)N3S(=O)(=O)c2ccc(F)cc2)c1 (single isomer, unassigned) [Example 37.2, 2-cyclopropyl-N-[3-(N,N-dimethylsulfamoyl)phenyl]-1-[(4-fluorophenyl)sulfonyl]-1,2,2′,3′,5′,6′-hexahydrospiro[indole-3,4′-thiopyran]-5-carboxamide 1′,1′-dioxide] | 44 |
| CN(C)S(=O)(=O)c1cccc(NC(=O)c2ccc3c(c2)C2(CCS(=O)(=O)CC2)C(C2CC2)N3S(=O)(=O)c2ccc(F)cc2)c1 (single isomer, unassigned) [Example 37.1, 2-cyclopropyl-N-[3-(N,N-dimethylsulfamoyl)phenyl]-1-[(4-fluorophenyl)sulfonyl]-1,2,2′,3′,5′,6′-hexahydrospiro[indole-3,4′-thiopyran]-5-carboxamide 1′,1′-dioxide] | 2130 |
| COc1cccc(S(=O)(=O)N2c3ccc(C(=O)NCc4ncccc4C(F)(F)F)cc3C3(CCS(=O)(=O)CC3)C2C2CC2)c1 (single isomer, unassigned) [Example 39.2, 2-cyclopropyl-1-[(3-methoxyphenyl)sulfonyl]-N-{[3-(trifluoromethyl)pyridin-2-yl]methyl}-1,2,2′,3′,5′,6′-hexahydrospiro[indole-3,4′-thiopyran]-5-carboxamide 1′,1′-dioxide] | 565 |
| NS(=O)(=O)c1cccc(NC(=O)c2ccc3c(c2)C2(CCS(=O)(=O)CC2)C(C2CC2)N3S(=O)(=O)c2ccc(F)cc2)c1 (centres unmarked) [Example 30, 2-cyclopropyl-1-[(4-fluorophenyl)sulfonyl]-N-(3-sulfamoylphenyl)-1,2,2′,3′,5′,6′-hexahydrospiro[indole-3,4′-thiopyran]-5-carboxamide 1′,1′-dioxide] | 245 |
| O=C(NCc1ccccc1C(F)F)c1ccc2c(c1)C1(CCS(=O)(=O)CC1)C(C1CC1)N2S(=O)(=O)c1ccc(F)cc1 (centres unmarked) [Example 68, 2-cyclopropyl-N-[2-(difluoromethyl)benzyl]-1-[(4-fluorophenyl)sulfonyl]-1,2,2′,3′,5′,6′-hexahydrospiro[indole-3,4′-thiopyran]-5-carboxamide 1′,1′-dioxide] | 4.5 |
| N#Cc1cccc(S(=O)(=O)N2c3ccc(C(=O)Nc4cncc(Cl)c4)cc3C3(CCS(=O)(=O)CC3)C2C2CC2)c1 (single isomer, unassigned) [Example 77.1, N-(5-chloropyridin-3-yl)-1-[(3-cyanophenyl)sulfonyl]-2-cyclopropyl-1,2,2′,3′,5′,6′-hexahydrospiro[indole-3,4′-thiopyran]-5-carboxamide 1′,1′-dioxide] | 54 |
| O=C(NCc1ncccc1C(F)(F)F)c1ccc2c(c1)C1(CCS(=O)(=O)CC1)C(C1CC1)N2S(=O)(=O)c1cccc(OC(F)(F)F)c1 (centres unmarked) [Example 84, 2-cyclopropyl-1-{[3-(trifluoromethoxy)phenyl]sulfonyl)-N-{[3-(trifluoromethyl)pyridin-2-yl]methyl}-1,2,2′,3′,5′,6′-hexahydrospiro[indole-3,4′-thiopyran]-5-carboxamide 1′,1′-dioxide] | 309 |
| COC(=O)c1cccc(NC(=O)c2ccc3c(c2)C2(CCS(=O)(=O)CC2)C(C2CC2)N3S(=O)(=O)c2cccc(OC)c2)c1 (centres unmarked) [Example 48, methyl 3-[({2-cyclopropyl-1-[(3-methoxyphenyl)sulfonyl]-1′,1′-dioxido-1,2,2′,3′,5′,6′-hexahydrospiro[indole-3,4′-thiopyran]-5-yl}carbonyl)amino]benzoate] | 55 |
| O=C(Nc1ccc2c(c1)C1(CCS(=O)(=O)CC1)C(C1CC1)N2S(=O)(=O)c1ccc(F)cc1)C1CC1 (centres unmarked) [Example 97, N-{2-Cyclopropyl-1-[(4-fluorophenyl)sulfonyl]-1′,1′-dioxido-1,2,2′,3′,5′,6′-hexahydrospiro[indole-3,4′-thiopyran]-5-yl}cyclopropanecarboxamide] | 2230 |
| COc1cccc(S(=O)(=O)N2c3ccc(C(=O)NCc4ccccc4Cl)cc3C3(CCS(=O)(=O)CC3)C2C2CC2)c1 (single isomer, unassigned) [Example 44.1, N-(2-chlorobenzyl)-2-cyclopropyl-1-[(3-methoxyphenyl)sulfonyl]-1,2,2′,3′,5′,6′-hexahydrospiro[indole-3,4′-thiopyran]-5-carboxamide 1′,1′-dioxide] | 25 |
| CC1N(S(=O)(=O)c2ccc(F)cc2)c2ccc(C(=O)Nc3cccc(S(C)(=O)=O)c3)cc2C12CCOCC2 (centres unmarked) [Example 10, 1-[(4-fluorophenyl)sulfonyl]-N-(3-mesylphenyl)-2-methyl-1,2,2′,3′,5′,6′-hexahydrospiro[indole-3,4′-pyran]-5-carboxamide] | 1390 |
